Assay results: PubChem BioAssay AID214 (DTP/NCI, 2004)
Several values for one entry are separate records, joined by “and”; a condition that tells them apart may be missing. Equal values may be shown once. Records with an inconclusive call do not appear.

Test system: B6C3F1 mice, colon carcinoma 38 s.c., T/C
Assay: NCI In Vivo Anticancer Drug Screen. Data for tumor model Colon Carcinoma 38 (subcutaneous) in B6C3F1 mice
Conditions: higher = larger tumour
Procedure: The antitumor activity of compounds was measured in mice bearing transplantable tumors. Survival or tumor size were measured and the results are expressed as the measurement made in the treated group (T) divided by the measurement made in the vehicle treated control group (C). The tumor model used in this assay is Colon Carcinoma 38 (subcutaneous) in B6C3F1 mice

[1] = endpoint: median tumor weight (est.), dose: 4.0 mg/kg/injection, schedule: Q07DX002 (ip), vehicle: saline
[2] = endpoint: median tumor weight (est.), dose: 8.0 mg/kg/injection, schedule: Q07DX002 (ip), vehicle: saline
[3] = endpoint: median tumor weight (est.), dose: 16.0 mg/kg/injection, schedule: Q07DX002 (ip), vehicle: saline
[4] = endpoint: median tumor weight (est.), dose: 32.0 mg/kg/injection, schedule: Q07DX002 (ip), vehicle: saline
[5] = endpoint: median tumor weight (est.), dose: 6.25 mg/kg/injection, schedule: Q07DX002 (ip), vehicle: saline
[6] = endpoint: median tumor weight (est.), dose: 12.5 mg/kg/injection, schedule: Q07DX002 (ip), vehicle: saline
[7] = endpoint: median tumor weight (est.), dose: 25.0 mg/kg/injection, schedule: Q07DX002 (ip), vehicle: saline
[8] = endpoint: median tumor weight (est.), dose: 50.0 mg/kg/injection, schedule: Q07DX002 (ip), vehicle: saline
[9] = endpoint: median tumor weight (est.), dose: 100.0 mg/kg/injection, schedule: Q07DX002 (ip), vehicle: Klucel (hydroxypropylcellulose) (HPC)
[10] = endpoint: median tumor weight (est.), dose: 200.0 mg/kg/injection, schedule: Q07DX002 (ip), vehicle: Klucel (hydroxypropylcellulose) (HPC)
[11] = endpoint: median tumor weight (est.), dose: 400.0 mg/kg/injection, schedule: Q07DX002 (ip), vehicle: Klucel (hydroxypropylcellulose) (HPC)
[12] = endpoint: median tumor weight (est.), dose: 800.0 mg/kg/injection, schedule: Q07DX002 (ip), vehicle: Klucel (hydroxypropylcellulose) (HPC)
[13] = endpoint: median tumor weight (est.), dose: 50.0 mg/kg/injection, schedule: Q07DX002 (ip), vehicle: Klucel (hydroxypropylcellulose) (HPC)
[14] = endpoint: median tumor weight (est.), dose: 100.0 mg/kg/injection, schedule: Q07DX002 (ip), vehicle: saline
[15] = endpoint: median tumor weight (est.), dose: 200.0 mg/kg/injection, schedule: Q07DX002 (ip), vehicle: saline
[16] = endpoint: median tumor weight (est.), dose: 400.0 mg/kg/injection, schedule: Q07DX002 (ip), vehicle: saline
[17] = endpoint: median tumor weight (est.), dose: 25.0 mg/kg/injection, schedule: Q07DX002 (ip), vehicle: saline with Tween-80
[18] = endpoint: median tumor weight (est.), dose: 50.0 mg/kg/injection, schedule: Q07DX002 (ip), vehicle: saline with Tween-80
[19] = endpoint: median tumor weight (est.), dose: 100.0 mg/kg/injection, schedule: Q07DX002 (ip), vehicle: saline with Tween-80
[20] = endpoint: median tumor weight (est.), dose: 200.0 mg/kg/injection, schedule: Q07DX002 (ip), vehicle: saline with Tween-80
[21] = endpoint: median tumor weight (est.), dose: 400.0 mg/kg/injection, schedule: Q07DX002 (ip), vehicle: saline with Tween-80

## Nc1ncn(C2OC(CO)C(O)C2O)c(=O)n1 (stereo not given)
[1]
  T/C: 60 % of control
[2]
  T/C: 82 % of control
[3]
  T/C: 33 % of control
[4]
  T/C: 6 % of control
endpoint: median tumor weight (est.), dose: 64.0 mg/kg/injection, schedule: Q07DX002 (ip), vehicle: saline
  T/C: 2 % of control

## CCOC(=O)C(N)C[S][Sn]([CH3])([CH3])[Cl] (stereo not given)
[5]
  T/C: 123 % of control
[6]
  T/C: 61 % of control
[7]
  T/C: 90 % of control
[8]
  T/C: 110 % of control

## COC1C(CO)OC(n2cnc3c(=S)nc(N)[nH]c32)C1O (stereo not given)
[9]
  T/C: 110 % of control
[10]
  T/C: 46 % of control
[11]
  T/C: 51 % of control
[12]
  T/C: 13 % of control

## O=c1[nH]cccc1O
endpoint: median tumor weight (est.), dose: 62.5 mg/kg/injection, schedule: Q07DX002 (ip), vehicle: saline with Tween-80
  T/C: 91 % of control
endpoint: median tumor weight (est.), dose: 125.0 mg/kg/injection, schedule: Q07DX002 (ip), vehicle: saline with Tween-80
  T/C: 90 % of control and 97 % of control
endpoint: median tumor weight (est.), dose: 250.0 mg/kg/injection, schedule: Q07DX002 (ip), vehicle: saline with Tween-80
  T/C: 90 % of control and 95 % of control
endpoint: median tumor weight (est.), dose: 500.0 mg/kg/injection, schedule: Q07DX002 (ip), vehicle: saline with Tween-80
  T/C: 95 % of control and 70 % of control
endpoint: median tumor weight (est.), dose: 1000.0 mg/kg/injection, schedule: Q07DX002 (ip), vehicle: saline with Tween-80
  T/C: 74 % of control

## COc1nc(C(Cl)(Cl)Cl)c(Cl)c(OC)c1Cl
[13]
  T/C: 103 % of control
[9]
  T/C: 109 % of control
[10]
  T/C: 104 % of control
[11]
  T/C: 47 % of control

## Cc1ccc2nc(-c3ccc4nc(-c5ccc(N=Nc6ccc(-c7nc8ccc(-c9nc%10ccc(C)c(S(=O)(=O)O)c%10s9)cc8s7)cc6)cc5)sc4c3)sc2c1S(=O)(=O)O
[8]
  T/C: 72 % of control
[14]
  T/C: 101 % of control
[15]
  T/C: 84 % of control
[16]
  T/C: 82 % of control

## OCC1OC(n2cnc3c(=S)nc[nH]c32)C(O)C1O (stereo not given)
endpoint: median tumor weight (est.), dose: 250.0 mg/kg/injection, schedule: Q07DX002 (ip), vehicle: suspension in saline
  T/C: 74 % of control
endpoint: median tumor weight (est.), dose: 500.0 mg/kg/injection, schedule: Q07DX002 (ip), vehicle: suspension in saline
  T/C: 31 % of control
endpoint: median tumor weight (est.), dose: 1000.0 mg/kg/injection, schedule: Q07DX002 (ip), vehicle: suspension in saline
  T/C: 41 % of control

## CCC/C=C/C=C/C(=O)OC1/C(=C/C(=O)OC)CC2CC(C(C)O)OC(=O)CC(O)CC3CC(OC(C)=O)C(C)(C)C(O)(CC4C/C(=C/C(=O)OC)CC(/C=C/C(C)(C)C1(O)O2)O4)O3 (stereo not given)
endpoint: median tumor weight (est.), dose: 37.5 micrograms/kg/injection, schedule: Q07DX002 (ip), vehicle: saline + alcohol
  T/C: 191 % of control
endpoint: median tumor weight (est.), dose: 300.0 micrograms/kg/injection, schedule: Q07DX002 (ip), vehicle: saline + alcohol
  T/C: 74 % of control

## CN(CCN(C)C(=O)CCOS(C)(=O)=O)C(=O)CCOS(C)(=O)=O
[6]
  T/C: 121 % of control
[7]
  T/C: 92 % of control
[8]
  T/C: 51 % of control
[14]
  T/C: 51 % of control
[15]
  T/C: 12 % of control

## CC(=O)CC(=O)CCC(=O)O
[8]
  T/C: 87 % of control
[14]
  T/C: 88 % of control
[15]
  T/C: 86 % of control
[16]
  T/C: 89 % of control

## Cc1c(N)nc(C(CC(N)=O)NCC(N)C(N)=O)nc1C(=O)NC(C(=O)NC(C)C(O)CC(=O)NC(C(=O)NC(OC1OC(C)C(N)C(O)C1O)C(O)c1nc(-c2nc(C(=O)NCCCC(N)CC(=O)NCCCNCCCCN)cs2)cs1)C(C)O)C(OC1OC(CO)C(O)C(O)C1OC1OC(CO)C(O)C(OC(N)=O)C1O)c1cnc[nH]1 (stereo not given)
[1]
  T/C: 36 % of control
[2]
  T/C: 15 % of control
[3]
  T/C: 8 % of control
[4]
  T/C: 1 % of control

## Nc1ccc2c(c1)CN1C(=O)c3ccccc3C1=N2
endpoint: median tumor weight (est.), dose: 6.25 mg/kg/injection, schedule: Q01DX008 (ip), vehicle: other
  T/C: 90 % of control
endpoint: median tumor weight (est.), dose: 12.5 mg/kg/injection, schedule: Q01DX008 (ip), vehicle: other
  T/C: 69 % of control
endpoint: median tumor weight (est.), dose: 25.0 mg/kg/injection, schedule: Q01DX008 (ip), vehicle: other
  T/C: 58 % of control
endpoint: median tumor weight (est.), dose: 25.0 mg/kg/injection, schedule: Q07DX002 (ip), vehicle: other
  T/C: 82 % of control and 92 % of control
[17]
  T/C: 60 % of control
endpoint: median tumor weight (est.), dose: 50.0 mg/kg/injection, schedule: Q01DX008 (ip), vehicle: other
  T/C: 21 % of control
[18]
  T/C: 56 % of control
endpoint: median tumor weight (est.), dose: 100.0 mg/kg/injection, schedule: Q07DX002 (ip), vehicle: other
  T/C: 49 % of control
[19]
  T/C: 60 % of control
endpoint: median tumor weight (est.), dose: 200.0 mg/kg/injection, schedule: Q07DX002 (ip), vehicle: other
  T/C: 1 % of control
[20]
  T/C: 35 % of control
endpoint: median tumor weight (est.), dose: 355.9 mg/kg/injection, schedule: Q07DX002 (oral), vehicle: DMSO
  T/C: 74 % of control
endpoint: median tumor weight (est.), dose: 533.6 mg/kg/injection, schedule: Q07DX002 (oral), vehicle: DMSO
  T/C: 94 % of control
endpoint: median tumor weight (est.), dose: 800.0 mg/kg/injection, schedule: Q07DX002 (oral), vehicle: DMSO
  T/C: 76 % of control
endpoint: median tumor weight (est.), dose: 1200.0 mg/kg/injection, schedule: Q07DX002 (oral), vehicle: DMSO
  T/C: 122 % of control
endpoint: optimum tumor weight change, dose: 86.0 mg/kg/injection, schedule: Q07DX002 (ip), vehicle: saline with Tween-80
  T/C: 77 % of control
endpoint: optimum tumor weight change, dose: 144.0 mg/kg/injection, schedule: Q07DX002 (ip), vehicle: saline with Tween-80
  T/C: 84 % of control
endpoint: optimum tumor weight change, dose: 240.0 mg/kg/injection, schedule: Q07DX002 (ip), vehicle: saline with Tween-80
  T/C: 84 % of control
endpoint: optimum tumor weight change, dose: 400.0 mg/kg/injection, schedule: Q07DX002 (ip), vehicle: saline with Tween-80
  T/C: 71 % of control

## Cc1c(-c2ccc(-c3ccccc3F)cc2)nc2ccc(F)cc2c1C(=O)O
endpoint: median tumor weight (est.), dose: 3.6 mg/kg/injection, schedule: Q01DX008 (ip), vehicle: water
  T/C: 45 % of control
endpoint: median tumor weight (est.), dose: 6.0 mg/kg/injection, schedule: Q01DX008 (ip), vehicle: water
  T/C: 53 % of control
endpoint: median tumor weight (est.), dose: 10.0 mg/kg/injection, schedule: Q01DX008 (ip), vehicle: water
  T/C: 43 % of control
endpoint: median tumor weight (est.), dose: 16.6 mg/kg/injection, schedule: Q01DX008 (ip), vehicle: water
  T/C: 26 % of control
endpoint: median tumor weight (est.), dose: 27.7 mg/kg/injection, schedule: Q01DX008 (ip), vehicle: water
  T/C: 23 % of control

## COc1ccc2c(ccc3oc([N+](=O)[O-])cc32)c1
[18]
  T/C: 101 % of control
[19]
  T/C: 116 % of control
[20]
  T/C: 90 % of control
[21]
  T/C: 92 % of control

## CCCCCNc1ncnc2c(C)[nH]nc12
[13]
  T/C: 123 % of control
[9]
  T/C: 102 % of control
[10]
  T/C: 77 % of control

## Nc1nc(-c2ccccc2)c(Br)c(=O)[nH]1
[20]
  T/C: 115 % of control
[21]
  T/C: 87 % of control

## O=C1CC2(C(=O)N1CN1CCOCC1)c1ccccc1-c1ccccc12
[13]
  T/C: 99 % of control
[9]
  T/C: 44 % of control
[10]
  T/C: 107 % of control
[11]
  T/C: 79 % of control
[12]
  T/C: 56 % of control

## O=C1[C@H]2CCC[C@H]2[C@H]2CCC[C@@H]12
[17]
  T/C: 106 % of control and 109 % of control
[18]
  T/C: 95 % of control and 107 % of control
[19]
  T/C: 41 % of control
[20]
  T/C: 100 % of control and 116 % of control
[21]
  T/C: 104 % of control

## CCN(CC)CCOC(=O)Cc1cc(OC)cc2c(=O)cc(-c3ccccc3)oc12
[10]
  T/C: 37 % of control
[11]
  T/C: 73 % of control

## O=c1n(CC2CO2)c(=O)n(CC2CO2)n1CC1CO1 (stereo not given)
[5]
  T/C: 72 % of control
[6]
  T/C: 67 % of control
[7]
  T/C: 87 % of control
[8]
  T/C: 31 % of control

## O=C(O)COc1cccc2c(=O)cc(-c3ccccc3)oc12
[14]
  T/C: 52 % of control
[15]
  T/C: 109 % of control

## ClCCCN1CCN(CCCl)CC1
endpoint: median tumor weight (est.), dose: 5.0 mg/kg/injection, schedule: Q07DX002 (ip), vehicle: saline
  T/C: 101 % of control
endpoint: median tumor weight (est.), dose: 10.0 mg/kg/injection, schedule: Q07DX002 (ip), vehicle: saline
  T/C: 83 % of control
endpoint: median tumor weight (est.), dose: 20.0 mg/kg/injection, schedule: Q07DX002 (ip), vehicle: saline
  T/C: 44 % of control

## CC(=O)N(C)O
[19]
  T/C: 124 % of control
[20]
  T/C: 116 % of control
[21]
  T/C: 91 % of control
endpoint: median tumor weight (est.), dose: 800.0 mg/kg/injection, schedule: Q07DX002 (ip), vehicle: saline with Tween-80
  T/C: 101 % of control

## COC(=O)Nc1nc2ccc(SC)cc2c(=O)[nH]1
[13]
  T/C: 117 % of control
[10]
  T/C: 84 % of control
[11]
  T/C: 109 % of control
